Laboratory results: PubChem BioAssay (NCI)
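Interpolation was linear, between the two tested concentrations surrounding the appropriate level; five concentrations were tested over 48 hours in 96-well plates. Definition used: TGI = concentration required for complete inhibition of growth.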

How the values were obtained:
Experiment in all cases: NCI anticancer screen, dose series, 48 h
786-0 renal = tested on: 786-0 renal
A498 renal = tested on: A498 renal
A549 NSCLC = tested on: A549 NSCLC
ACHN renal = tested on: ACHN renal
BT-549 breast = tested on: BT-549 breast
CAKI-1 renal = tested on: CAKI-1 renal
CCRF-CEM leukemia = tested on: CCRF-CEM leukemia
COLO 205 colon = tested on: COLO 205 colon
DU-145 prostate = tested on: DU-145 prostate
EKVX NSCLC = tested on: EKVX NSCLC
HCC-2998 colon = tested on: HCC-2998 colon
HCT-116 colon = tested on: HCT-116 colon
HCT-15 colon = tested on: HCT-15 colon
HL-60(TB) leukemia = tested on: HL-60(TB) leukemia
HOP-62 NSCLC = tested on: HOP-62 NSCLC
HOP-92 NSCLC = tested on: HOP-92 NSCLC
HS 578T breast = tested on: HS 578T breast
HT29 colon = tested on: HT29 colon
IGROV1 ovarian = tested on: IGROV1 ovarian
K-562 leukemia = tested on: K-562 leukemia
KM12 colon = tested on: KM12 colon
LOX IMVI melanoma = tested on: LOX IMVI melanoma
M14 melanoma = tested on: M14 melanoma
MCF7 breast = tested on: MCF7 breast
MDA-MB-231 breast = tested on: MDA-MB-231 breast
MDA-MB-435 = tested on: MDA-MB-435
MDA-N = tested on: MDA-N
MOLT-4 leukemia = tested on: MOLT-4 leukemia
NCI-H226 lung = tested on: NCI-H226 lung
NCI-H23 lung = tested on: NCI-H23 lung
NCI-H460 lung = tested on: NCI-H460 lung
NCI-H522 lung = tested on: NCI-H522 lung
NCI/ADR-RES ovarian = tested on: NCI/ADR-RES ovarian
OVCAR-3 ovarian = tested on: OVCAR-3 ovarian
OVCAR-4 ovarian = tested on: OVCAR-4 ovarian
OVCAR-5 ovarian = tested on: OVCAR-5 ovarian
OVCAR-8 ovarian = tested on: OVCAR-8 ovarian
PC-3 prostate = tested on: PC-3 prostate
RPMI-8226 leukemia = tested on: RPMI-8226 leukemia
RXF 393 renal = tested on: RXF 393 renal
SF-268 CNS = tested on: SF-268 CNS
SF-295 CNS = tested on: SF-295 CNS
SF-539 CNS = tested on: SF-539 CNS
SK-MEL-2 melanoma = tested on: SK-MEL-2 melanoma
SK-MEL-28 melanoma = tested on: SK-MEL-28 melanoma
SK-MEL-5 melanoma = tested on: SK-MEL-5 melanoma
SK-OV-3 ovarian = tested on: SK-OV-3 ovarian
SN12C renal = tested on: SN12C renal
SNB-19 CNS = tested on: SNB-19 CNS
SNB-75 CNS = tested on: SNB-75 CNS
SR leukemia = tested on: SR leukemia
SW-620 colon = tested on: SW-620 colon
T-47D breast = tested on: T-47D breast
TK-10 renal = tested on: TK-10 renal
U251 CNS = tested on: U251 CNS
UACC-257 melanoma = tested on: UACC-257 melanoma
UACC-62 melanoma = tested on: UACC-62 melanoma
UO-31 renal = tested on: UO-31 renal
MALME-3M melanoma = tested on: MALME-3M melanoma

## CCCCCCNC(=O)C1=C(C)NC(C)=C(C(=O)NCCCCCC)C1
786-0 renal
  TGI: > 100 µM
A498 renal
  TGI: > 100 µM
A549 NSCLC
  TGI: > 100 µM
ACHN renal
  TGI: > 100 µM
BT-549 breast
  TGI: > 100 µM
CAKI-1 renal
  TGI: > 100 µM
CCRF-CEM leukemia
  TGI: > 100 µM
COLO 205 colon
  TGI: > 100 µM
DU-145 prostate
  TGI: > 100 µM
EKVX NSCLC
  TGI: > 100 µM
HCC-2998 colon
  TGI: > 100 µM
HCT-116 colon
  TGI: > 100 µM
HCT-15 colon
  TGI: > 100 µM
HL-60(TB) leukemia
  TGI: > 100 µM
HOP-62 NSCLC
  TGI: > 100 µM
HOP-92 NSCLC
  TGI: > 100 µM
HS 578T breast
  TGI: > 100 µM
HT29 colon
  TGI: > 100 µM
IGROV1 ovarian
  TGI: > 100 µM
K-562 leukemia
  TGI: > 100 µM
KM12 colon
  TGI: > 100 µM
LOX IMVI melanoma
  TGI: > 100 µM
M14 melanoma
  TGI: > 100 µM
MCF7 breast
  TGI: > 100 µM
MDA-MB-231 breast
  TGI: > 100 µM
MDA-MB-435
  TGI: > 100 µM
MDA-N
  TGI: > 100 µM
MOLT-4 leukemia
  TGI: > 100 µM
NCI-H226 lung
  TGI: > 100 µM
NCI-H23 lung
  TGI: > 100 µM
NCI-H460 lung
  TGI: > 100 µM
NCI-H522 lung
  TGI: > 100 µM
NCI/ADR-RES ovarian
  TGI: > 100 µM
OVCAR-3 ovarian
  TGI: > 100 µM
OVCAR-4 ovarian
  TGI: > 100 µM
OVCAR-5 ovarian
  TGI: > 100 µM
OVCAR-8 ovarian
  TGI: > 100 µM
PC-3 prostate
  TGI: > 100 µM
RPMI-8226 leukemia
  TGI: > 100 µM
RXF 393 renal
  TGI: > 100 µM
SF-268 CNS
  TGI: > 100 µM
SF-295 CNS
  TGI: > 100 µM
SF-539 CNS
  TGI: > 100 µM
SK-MEL-2 melanoma
  TGI: > 100 µM
SK-MEL-28 melanoma
  TGI: > 100 µM
SK-MEL-5 melanoma
  TGI: > 100 µM
SK-OV-3 ovarian
  TGI: > 100 µM
SN12C renal
  TGI: > 100 µM
SNB-19 CNS
  TGI: > 100 µM
SNB-75 CNS
  TGI: > 100 µM
SR leukemia
  TGI: > 100 µM
SW-620 colon
  TGI: > 100 µM
T-47D breast
  TGI: > 100 µM
TK-10 renal
  TGI: > 100 µM
U251 CNS
  TGI: > 100 µM
UACC-257 melanoma
  TGI: > 100 µM
UACC-62 melanoma
  TGI: > 100 µM
UO-31 renal
  TGI: > 100 µM

## CSC(=NC1=NC(C(F)(F)F)(C(F)(F)F)N=C(c2ccccc2)O1)SC
786-0 renal
  TGI: 43.5 µM
A498 renal
  TGI: 51.6 µM
A549 NSCLC
  TGI: > 100 µM
ACHN renal
  TGI: 14.9 µM
BT-549 breast
  TGI: 82.4 µM
CAKI-1 renal
  TGI: 44.8 µM
CCRF-CEM leukemia
  TGI: > 100 µM
COLO 205 colon
  TGI: 46.5 µM
DU-145 prostate
  TGI: 45 µM
EKVX NSCLC
  TGI: 42.3 µM
HCC-2998 colon
  TGI: 39.6 µM
HCT-116 colon
  TGI: 16.3 µM
HCT-15 colon
  TGI: 33.5 µM
HL-60(TB) leukemia
  TGI: 64 µM
HOP-62 NSCLC
  TGI: 59 µM
HOP-92 NSCLC
  TGI: 49.2 µM
HS 578T breast
  TGI: 72.5 µM
HT29 colon
  TGI: 61 µM
K-562 leukemia
  TGI: > 100 µM
KM12 colon
  TGI: 20.7 µM
LOX IMVI melanoma
  TGI: 42.8 µM
M14 melanoma
  TGI: 54.6 µM
MALME-3M melanoma
  TGI: 37.7 µM
MCF7 breast
  TGI: 60.5 µM
MDA-MB-231 breast
  TGI: 88.1 µM
MDA-MB-435
  TGI: 55 µM
MDA-N
  TGI: 41.7 µM
MOLT-4 leukemia
  TGI: 85.3 µM
NCI-H226 lung
  TGI: 83.9 µM
NCI-H23 lung
  TGI: 65.5 µM
NCI-H460 lung
  TGI: > 100 µM
NCI-H522 lung
  TGI: 25 µM
NCI/ADR-RES ovarian
  TGI: 90.9 µM
OVCAR-3 ovarian
  TGI: 63.9 µM
OVCAR-4 ovarian
  TGI: 59.1 µM
OVCAR-5 ovarian
  TGI: 82.3 µM
OVCAR-8 ovarian
  TGI: > 100 µM
PC-3 prostate
  TGI: 38.9 µM
RXF 393 renal
  TGI: 24.5 µM
SF-268 CNS
  TGI: > 100 µM
SF-295 CNS
  TGI: > 100 µM
SF-539 CNS
  TGI: > 100 µM
SK-MEL-2 melanoma
  TGI: 55.9 µM
SK-MEL-28 melanoma
  TGI: > 100 µM
SK-MEL-5 melanoma
  TGI: 33.1 µM
SK-OV-3 ovarian
  TGI: > 100 µM
SN12C renal
  TGI: 42.9 µM
SNB-19 CNS
  TGI: > 100 µM
SNB-75 CNS
  TGI: 18.9 µM
SR leukemia
  TGI: 76.1 µM
SW-620 colon
  TGI: > 100 µM
T-47D breast
  TGI: 24.2 µM
TK-10 renal
  TGI: > 100 µM
U251 CNS
  TGI: 75.2 µM
UACC-257 melanoma
  TGI: 60.5 µM
UACC-62 melanoma
  TGI: 64.2 µM
UO-31 renal
  TGI: 89.2 µM

## O=C1c2ccccc2CC12Cc1ccc3c(c1C2)CCC3 (centres undefined)
786-0 renal
  TGI: 51.7 µM
A498 renal
  TGI: > 100 µM
A549 NSCLC
  TGI: 64.2 µM
ACHN renal
  TGI: 61 µM
BT-549 breast
  TGI: > 100 µM
CAKI-1 renal
  TGI: > 100 µM
CCRF-CEM leukemia
  TGI: 49.3 µM
COLO 205 colon
  TGI: 59.3 µM
DU-145 prostate
  TGI: > 100 µM
EKVX NSCLC
  TGI: 47.7 µM
HCC-2998 colon
  TGI: 54.7 µM
HCT-116 colon
  TGI: 40.1 µM
HCT-15 colon
  TGI: 31.6 µM
HL-60(TB) leukemia
  TGI: 42.1 µM
HOP-62 NSCLC
  TGI: 69.5 µM
HOP-92 NSCLC
  TGI: 34.9 µM
HS 578T breast
  TGI: 83.4 µM
HT29 colon
  TGI: 29.2 µM
IGROV1 ovarian
  TGI: > 100 µM
K-562 leukemia
  TGI: > 100 µM
KM12 colon
  TGI: 73.9 µM
LOX IMVI melanoma
  TGI: 24.8 µM
M14 melanoma
  TGI: 49.1 µM
MALME-3M melanoma
  TGI: 30.3 µM
MCF7 breast
  TGI: 39.6 µM
MDA-MB-231 breast
  TGI: 47.1 µM
MDA-MB-435
  TGI: 33.7 µM
MDA-N
  TGI: 44.4 µM
MOLT-4 leukemia
  TGI: > 100 µM
NCI-H226 lung
  TGI: 64.7 µM
NCI-H23 lung
  TGI: > 100 µM
NCI-H460 lung
  TGI: 79.2 µM
NCI-H522 lung
  TGI: 25.2 µM
NCI/ADR-RES ovarian
  TGI: 28.4 µM
OVCAR-3 ovarian
  TGI: 41.7 µM
OVCAR-4 ovarian
  TGI: > 100 µM
OVCAR-5 ovarian
  TGI: 42.2 µM
OVCAR-8 ovarian
  TGI: > 100 µM
PC-3 prostate
  TGI: > 100 µM
RPMI-8226 leukemia
  TGI: 59.6 µM
RXF 393 renal
  TGI: 38.7 µM
SF-268 CNS
  TGI: > 100 µM
SF-295 CNS
  TGI: 76.5 µM
SF-539 CNS
  TGI: 90.2 µM
SK-MEL-2 melanoma
  TGI: 30.2 µM
SK-MEL-28 melanoma
  TGI: > 100 µM
SK-MEL-5 melanoma
  TGI: 28.8 µM
SK-OV-3 ovarian
  TGI: > 100 µM
SN12C renal
  TGI: > 100 µM
SNB-19 CNS
  TGI: > 100 µM
SNB-75 CNS
  TGI: 97.9 µM
SR leukemia
  TGI: 44.1 µM
SW-620 colon
  TGI: > 100 µM
T-47D breast
  TGI: > 100 µM
TK-10 renal
  TGI: 26.7 µM
U251 CNS
  TGI: 38 µM
UACC-257 melanoma
  TGI: 30.2 µM
UACC-62 melanoma
  TGI: 60.5 µM
UO-31 renal
  TGI: > 100 µM
